ChEMBL document CHEMBL5338815 (J Med Chem, 2023)
Active and inactive are the calls of the source. The rule behind the calls is not given here.

Columns and labels:
[1] = target: T1, Histone-lysine N-methyltransferase EHMT2 (Homo sapiens, UniProt Q96KQ7); test: Inhibition of G9a (unknown origin) by AlphaLISA assay
T1 sequence (Q96KQ7 whole entry): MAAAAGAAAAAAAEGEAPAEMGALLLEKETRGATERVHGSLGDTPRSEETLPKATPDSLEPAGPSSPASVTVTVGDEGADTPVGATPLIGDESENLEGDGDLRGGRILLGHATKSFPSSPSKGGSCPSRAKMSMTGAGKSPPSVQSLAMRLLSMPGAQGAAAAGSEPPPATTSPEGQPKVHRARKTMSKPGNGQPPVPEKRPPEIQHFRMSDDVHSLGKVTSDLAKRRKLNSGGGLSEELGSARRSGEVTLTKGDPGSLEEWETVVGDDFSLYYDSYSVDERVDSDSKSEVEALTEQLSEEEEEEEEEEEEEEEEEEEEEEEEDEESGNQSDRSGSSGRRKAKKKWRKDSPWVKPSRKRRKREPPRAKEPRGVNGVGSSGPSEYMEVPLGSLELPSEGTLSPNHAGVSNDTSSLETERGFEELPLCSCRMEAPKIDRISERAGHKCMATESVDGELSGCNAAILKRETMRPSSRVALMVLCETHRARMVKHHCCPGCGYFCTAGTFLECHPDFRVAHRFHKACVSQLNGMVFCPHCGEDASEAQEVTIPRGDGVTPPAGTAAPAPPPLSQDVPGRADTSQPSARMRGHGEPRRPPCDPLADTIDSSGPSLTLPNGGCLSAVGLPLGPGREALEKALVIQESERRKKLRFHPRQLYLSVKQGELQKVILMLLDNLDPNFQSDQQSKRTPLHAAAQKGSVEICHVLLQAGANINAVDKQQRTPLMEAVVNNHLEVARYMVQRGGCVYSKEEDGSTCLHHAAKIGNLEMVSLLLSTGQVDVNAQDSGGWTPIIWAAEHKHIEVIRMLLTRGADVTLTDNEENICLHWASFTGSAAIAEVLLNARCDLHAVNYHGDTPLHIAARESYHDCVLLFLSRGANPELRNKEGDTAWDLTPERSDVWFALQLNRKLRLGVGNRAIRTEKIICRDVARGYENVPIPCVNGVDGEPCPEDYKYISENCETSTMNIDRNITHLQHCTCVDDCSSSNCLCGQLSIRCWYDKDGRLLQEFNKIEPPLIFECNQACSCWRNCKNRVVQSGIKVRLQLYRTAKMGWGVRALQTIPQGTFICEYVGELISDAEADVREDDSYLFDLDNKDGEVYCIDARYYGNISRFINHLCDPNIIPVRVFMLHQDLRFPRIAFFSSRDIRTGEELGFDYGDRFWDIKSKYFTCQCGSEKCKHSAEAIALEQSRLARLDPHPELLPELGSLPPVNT

MDA-MB-231 [2] = test: Antiproliferative activity against human MDA-MB-231 cells assessed as cell viability measured after 24 hrs by CCK-8 assay; format: functional, cell-based; settings: MDA-MB-231, 24 h
PANC-1 = test: Antiproliferative activity against human PANC-1 cells assessed as cell viability measured after 24 hrs by CCK-8 assay; format: functional, cell-based; settings: PANC-1, 24 h
MDA-MB-231 [3] = test: Reduction in H3K9me2 level in human MDA-MB-231 cells at 10 uM by Western blot analysis; format: functional, cell-based; settings: time 24-96 hrs, TDE = time-dependent effect
MDA-MB-231 [4] = test: Reduction in H3K9me2 level in human MDA-MB-231 cells at 10 uM incubated for 48 hrs followed replaced with fresh medium measured after 24 hrs by Western blot analysis; format: functional, cell-based
[5] = target: T2, Histone-lysine N-methyltransferase EHMT2 (Homo sapiens) (UniProt Q96KQ7); test: Binding affinity to G9a in human MDA-MB-231 cells assessed as protein stabilization at 37 to 41.7 degC at 10 uM incubated for 15 hrs in presence of G9a antibody by CETSA; format: cell-based
T2 sequence (whole entry): T1 sequence (Q96KQ7 whole entry)

[6] = target: T1, Histone-lysine N-methyltransferase EHMT2; test: Inhibition of human recombinant G9a using H3-SAM as substrate
[7] = target: T3, Histone-lysine N-methyltransferase EHMT1 (Homo sapiens, UniProt Q9H9B1); test: Inhibition of GLP (unknown origin)
T3 sequence (Q9H9B1 whole entry): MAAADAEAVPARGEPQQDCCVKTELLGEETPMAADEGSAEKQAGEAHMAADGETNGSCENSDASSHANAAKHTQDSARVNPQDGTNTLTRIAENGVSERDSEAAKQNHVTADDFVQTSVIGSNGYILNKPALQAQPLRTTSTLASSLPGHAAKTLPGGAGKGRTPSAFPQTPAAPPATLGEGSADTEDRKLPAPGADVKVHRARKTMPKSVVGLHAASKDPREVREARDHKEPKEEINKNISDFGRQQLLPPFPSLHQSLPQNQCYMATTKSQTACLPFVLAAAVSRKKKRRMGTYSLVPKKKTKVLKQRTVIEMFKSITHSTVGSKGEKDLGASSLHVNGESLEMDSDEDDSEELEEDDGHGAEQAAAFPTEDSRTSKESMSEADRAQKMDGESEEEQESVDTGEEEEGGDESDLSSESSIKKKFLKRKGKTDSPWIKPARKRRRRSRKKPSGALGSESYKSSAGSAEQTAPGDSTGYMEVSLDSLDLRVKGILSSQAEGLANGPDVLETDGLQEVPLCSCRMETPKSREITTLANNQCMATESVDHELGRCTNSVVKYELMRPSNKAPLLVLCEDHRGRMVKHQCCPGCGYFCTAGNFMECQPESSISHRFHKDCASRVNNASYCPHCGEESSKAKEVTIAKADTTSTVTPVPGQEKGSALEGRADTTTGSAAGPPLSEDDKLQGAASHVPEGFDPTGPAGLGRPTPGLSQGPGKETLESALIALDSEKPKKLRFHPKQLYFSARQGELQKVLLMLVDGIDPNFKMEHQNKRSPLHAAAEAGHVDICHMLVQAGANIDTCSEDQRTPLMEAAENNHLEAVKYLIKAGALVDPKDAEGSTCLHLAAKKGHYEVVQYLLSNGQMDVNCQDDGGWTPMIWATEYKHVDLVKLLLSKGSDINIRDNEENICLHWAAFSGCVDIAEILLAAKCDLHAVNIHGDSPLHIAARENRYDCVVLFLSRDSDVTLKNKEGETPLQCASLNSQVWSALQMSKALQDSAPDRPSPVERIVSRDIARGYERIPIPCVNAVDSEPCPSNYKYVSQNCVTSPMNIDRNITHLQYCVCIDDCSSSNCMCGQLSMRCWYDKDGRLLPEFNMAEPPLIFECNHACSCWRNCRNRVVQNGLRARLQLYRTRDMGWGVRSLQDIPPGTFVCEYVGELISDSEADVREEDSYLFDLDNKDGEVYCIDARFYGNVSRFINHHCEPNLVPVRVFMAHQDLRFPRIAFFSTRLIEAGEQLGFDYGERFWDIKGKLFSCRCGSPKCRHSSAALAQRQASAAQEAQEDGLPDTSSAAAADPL

[8] = Metabolic stability in mouse liver microsomes assessed as half life at 0.1 uM measured upto 60 mins by LC-MS/MS analysis; format: ADME, Microsome

| Compound | IC50 [1] [nM] | also measured |
| --- | --- | --- |
| C=C(C)C(=O)NCc1cc(NC2CCN(C)CC2)c2cc(OC)c(OCCCN3CCCC3)cc2n1 | 0.53 | – |
| COc1cc2c(NC3CCN(C)CC3)nc(CNC(=O)C3(C#N)CC3)nc2cc1OCCCN1CCCC1 | 111 | – |
| CNc1nc2cc(OCCCN3CCCC3)c(OC)cc2n1C(C)C | – | IC50 [6]: < 100 nM; IC50 [7]: < 100 nM |
| C=CC(=O)N(C)c1nc(NC2CCN(C3CCCCC3)CC2)c2cc(OC)c(OCCCN3CCCC3)cc2n1 | 3.51 | IC50 (MDA-MB-231 [2]): 2230 nM; half-life at 0.1 µM [8]: 10 min; IC50 (PANC-1): 2440 nM |
| CCC(=O)NCc1cc(NC2CCN(C)CC2)c2cc(OC)c(OCCCN3CCCC3)cc2n1 | 0.71 | – |
| C=CC(=O)NCc1cc(NC2CCN(C)CC2)c2cc(OC)c(OCCCN3CCCC3)cc2n1 | 0.49 | – |
| CC#CC(=O)NCc1cc(NC2CCN(C)CC2)c2cc(OC)c(OCCCN3CCCC3)cc2n1 | 0.42 | – |
| COc1cc2c(NC3CCN(C)CC3)cc(CNC(=O)CCl)nc2cc1OCCCN1CCCC1 | 1.7 | – |
| C=CC(=O)N(C)c1nc(NC2CCN(Cc3ccccc3)CC2)c2cc(OC)c(OCCCN3CCCC3)cc2n1 | 5.9 | IC50 (MDA-MB-231 [2]): 460 nM; half-life at 0.1 µM [8]: 4.72 min; IC50 (PANC-1): 520 nM |
| C/C=C/C(=O)NCc1cc(NC2CCN(C)CC2)c2cc(OC)c(OCCCN3CCCC3)cc2n1 | 0.52 | – |

Continued, in another order:

| IC50 [1] [nM] | Compound | also measured |
| --- | --- | --- |
| 60 | C=CC(=O)NCc1nc(NC2CCN(C)CC2)c2cc(OC)c(OCCCN3CCCC3)cc2n1 | – |
| 3.9 | C=CC(=O)N(C)c1nc(NC2CCN(CCC)CC2)c2cc(OC)c(OCCCN3CCCC3)cc2n1 | IC50 (MDA-MB-231 [2]): 5480 nM; IC50 (PANC-1): 4750 nM |
| 5.8 | CCC(=O)N(C)c1nc(NC2CCN(C)CC2)c2cc(OC)c(OCCCN3CCCC3)cc2n1 | IC50 (MDA-MB-231 [2]): 9730 nM; IC50 (PANC-1): 14800 nM; inhibition (MDA-MB-231 [3]): Tde; inhibition (MDA-MB-231 [4]): inactive; Activity [5]: Active |
| 116 | C=C(C)C(=O)NCc1nc(NC2CCN(C)CC2)c2cc(OC)c(OCCCN3CCCC3)cc2n1 | – |
| 5.7 | COc1cc2c(NC3CCN(C)CC3)nc(CNC(=O)CCl)nc2cc1OCCCN1CCCC1 | – |
| 74 | C/C=C/C(=O)NCc1nc(NC2CCN(C)CC2)c2cc(OC)c(OCCCN3CCCC3)cc2n1 | – |
| 64 | CCC(=O)NCc1nc(NC2CCN(C)CC2)c2cc(OC)c(OCCCN3CCCC3)cc2n1 | – |
| 11 | C=CC(=O)N(C)c1nc(NCC2CCN(C)CC2)c2cc(OC)c(OCCCN3CCCC3)cc2n1 | IC50 (MDA-MB-231 [2]): > 40000 nM; IC50 (PANC-1): > 40000 nM |
| 4.4 | C=CC(=O)N(C)c1nc(NC2CCN(C(C)C)CC2)c2cc(OC)c(OCCCN3CCCC3)cc2n1 | IC50 (MDA-MB-231 [2]): 9600 nM; IC50 (PANC-1): 8220 nM |
| 7.6 | COc1cc2c(NC3CCN(C)CC3)nc(CNC(=O)/C=C/CN(C)C)nc2cc1OCCCN1CCCC1 | – |
| 80 | COc1cc2c(NC3CCN(C)CC3)nc(CNC(=O)CC#N)nc2cc1OCCCN1CCCC1 | – |
| 95 | CC#CC(=O)NCc1nc(NC2CCN(C)CC2)c2cc(OC)c(OCCCN3CCCC3)cc2n1 | – |
